One data set concerns the target T1, DNA-PK kinase (Homo sapiens, UniProt P78527).
T1 construct: purchased Promega V4107
Nature of the data set: Inhibition assay of DNA-PK kinase (Promega kit, ADP-Glo chemiluminescence). Format: biochemical. The settings on record: 50 µM ATP, 37° C., 60 min; read-out: IC50 (nM), inhibitory activity on DNA-PK kinase. In outline:
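Compounds incubated with DNA-PK at 37° C for 60 min; reaction stopped with ADP-Glo reagent (40 min, RT), then kinase detection reagent (30 min, RT). ADP formed read by luminescence against an ADP standard curve.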
(ADP-Glo turns the ADP formed in a reaction into a luminescent signal.)

Data set [1] is described as follows: Metabolic stability in liver microsomes. Format: in vitro ADME, human. The settings on record: human, human liver microsomes; 0.5 µM test substance, 0.5 mg/mL microsomes, NADPH and UDPGA, 37° C.; read-out: T½(min), stability in human liver microsomes. Here is the method: Liver microsomes (purchased from Reed Liver Disease Research (Shanghai) Co., Ltd., product: human liver microsomes (NJT)); NADPH (purchased from Roche, Lot: 40939); UDPGA; the compounds of the present invention (test substances).
• (1) A mixed working solution of testosterone (0.5 µM) and 7-hydroxycoumarin (0.5 µM) was prepared. • (2) A mixed solution of NADPH (1 mM) and UDPGA (1 mM) was prepared, and prewarmed at 37° C. in a water bath shaker before use. • (3) Liver microsomes were thawed and diluted with a buffer. • (4) A preparation of a test substance (0.5 µM) and a solution of liver microsomes (0.5 mg/mL) were added to each well of an incubation plate. • (5) Three experimental groups were set and samples were added. Test group: the test substance was incubated with liver microsomes for 0 min, 30 min, 60 min, and 120 min in the presence of the coenzyme NADPH and UDPGA; Positive control group: testosterone (0.5 µM) and 7-hydroxycoumarin (0.5 µM) were incubated with microsomes for 0 min and 120 min in the presence of the coenzyme NADPH and UDPGA; Negative control group: the test substance was incubated with microsomes for 0 and 120 min without any coenzyme. • (6) All samples were incubated at 37° C., and pre-cooled methanol was added at each termination time (0, 15, 30, 45, 60 min, 120 min) to terminate the reaction, and the time was recorded. • (7) All samples were mixed well and centrifuged at 4000 rpm for 10 min. The supernatant was taken and measured by LC-MS/MS for the amount of the test substance remaining in the samples. Data analysis was carried out as follows: T½=0.693 /k, Clint = (0.693/T½) × (1 /(microsomal protein) × Scaling Factors), Note: k is the slope of the logarithm of the remaining amounts of compound versus time.

Data set [2] is described as follows: Pharmacokinetic assay in ICR mice (i.v. and p.o.). Format: in vivo. The settings on record: mouse, plasma, male ICR mice; for half-life: read-out: T½ (converted); for bioavailability: po 10 mg/kg vs iv 1 mg/kg. Here is the method: ICR mice were purchased from Beijing Vital River Laboratory Animal Technology Co., Ltd.
3.2 Experimental procedure • (1) Healthy male ICR mice (18-22 g) were prepared, with 18 mice for each compound. The mice were divided into 2 groups (an i.v. group and a p.o. group), with 9 mice per group. 3 mice were picked for blood collection at each time point. • (2) After the animals were fasted overnight (with free access to water), the compound of the present invention dissolved (or suspended) in a solvent of 5% DMSO and 95% 30% HP-β-CD (v:v) was administered via the tail vein (i.v., 1 mg/kg) or intragastrically (p.o., 10 mg/kg), respectively. • (3) For the i.v. group, 0.1 mL blood was collected from the submandibular vein 5 min, 15 min, 0.5 h, 1 h, 2 h, 4 h, 8 h, 12 h, and 24 h after administration, respectively, anticoagulated with EDTA-K2, and centrifuged at 4° C. for 5 min to obtain plasma, which was stored at -20° C. until testing. (4) For the p.o. group, 0.1 mL blood was collected from the submandibular vein before administration and 15 min, 0.5 h, 1 h, 2 h, 4 h, 6 h, 8 h, 12 h, and 24 h after administration, and treated in the same manner as that for the intravenous group. • (5) The concentration of the compound of the present invention in plasma was measured by LC/MS/MS. • (6) Calculation and fitting were performed with Analyst 1.6 from AB Company, and the results are shown in Table 3.

Molecules are shown by their SMILES. Where two headings read alike, the source gives them in different places. Where only a bound is given, the exact number is not on record here.

As usually defined, the IC50 is the concentration needed to halve the response being measured. In general, AUC refers to the area under the concentration-time curve, a measure of exposure. As a reminder, the Cmax is the peak of the concentration-time curve.

As to `[2H]C([2H])([2H])Oc1cc(C)c(Nc2ncc3c(n2)n(C2CCOCC2)c(=O)n3C)cn1` [Compound 38, 2-((6-(methoxy-d3)-4-methylpyridin-3-yl)amino)-7-methyl-9-(tetrahydro-2H-pyran-4-yl)-7,9-dihydro-8H-purin-8-one], the IC50 at DNA-PK kinase turned out to be 0.47 nM. Further, the half-life at 0.5 µM in data set [1] was above 120 min. For the same compound, in data set [2] (iv, 1 mg/kg), the AUC came out at 269 ng·h/mL and the half-life was 0.341 h. The bioavailability in data set [2] was 47.7%. In data set [2] (po, 10 mg/kg), the AUC was determined as 1310 ng·h/mL, the concentration peaked (Cmax) at 2200 ng/mL and the half-life was 1.02 h.

On to `CNC(=O)c1cc(C)c(Nc2ncc3c(n2)n(C2CCOCC2)c(=O)n3C)cn1` [Compound 54, N,4-Dimethyl-5-((7-methyl-8-oxo-9-(tetrahydro-2H-pyran-4-yl)-8,9-dihydro-7H-purin-2-yl)amino)picolinamide], for which the IC50 at DNA-PK kinase is 8.07 nM. The half-life at 0.5 µM in data set [1] was above 120 min. Besides, in data set [2] (iv, 1 mg/kg), the AUC is 840 ng·h/mL and the half-life is 5.22 h. In data set [2], the bioavailability was determined as 63.9%. Besides, in data set [2] (po, 10 mg/kg), the AUC came to 5370 ng·h/mL, the highest level (Cmax) was 2060 ng/mL and the half-life was 3.21 h.

With `COc1cc(C)c(Nc2ncc3c(n2)n(C2CCOCC2)c(=O)n3C)cn1` [Compound 9, 2-((6-methoxy-4-methylpyridin-3-yl)amino)-7-methyl-9-(tetrahydro-2H-pyran-4-yl)-7,9-dihydro-8H-purin-8-one], the IC50 at DNA-PK kinase came out at 0.47 nM. The half-life at 0.5 µM in data set [1] is above 120 min. Besides, in data set [2] (iv, 1 mg/kg), the AUC amounted to 323 ng·h/mL and the half-life was 0.41 h. Also, in data set [2], the bioavailability amounted to 51.4%. Besides, in data set [2] (po, 10 mg/kg), the AUC was 1660 ng·h/mL, the peak level (Cmax) was 1490 ng/mL and the half-life was 1.34 h.

`Cc1cc(C(N)=O)c(F)cc1Nc1ncc2c(n1)n([C@H]1CCOC1)c(=O)n2C` [Compound 75, (S)-2-fluoro-5-methyl-4-((7-methyl-8-oxo-9-(tetrahydrofuran-3-yl)-8,9-dihydro-7H-purin-2-yl)amino)benzamiderile]: the IC50 at DNA-PK kinase was 5.69 nM. The half-life at 0.5 µM in data set [1] was above 120 min. In data set [2] (iv, 1 mg/kg), the AUC is 109 ng·h/mL and the half-life was 0.31 h. Besides, in data set [2], the bioavailability worked out at 69.2%. Further, in data set [2] (po, 10 mg/kg), the AUC came to 756 ng·h/mL, the concentration peaked (Cmax) at 984 ng/mL and the half-life is 2.1 h.

On to `Cc1sc(C(N)=O)cc1Nc1ncc2c(n1)n(C1CCOCC1)c(=O)n2C` [Compound 42, 5-Methyl-4-((7-methyl-8-oxo-9-(tetrahydro-2H-pyran-4-yl)-8,9-dihydro-7H-purin-2-yl)amino)thiophene-2-carboxamide], for which the 50% inhibitory concentration (IC50) on DNA-PK kinase is 2.05 nM. In data set [1], the half-life at 0.5 µM was above 120 min. Moreover, in data set [2] (iv, 1 mg/kg), the AUC was 230 ng·h/mL and the half-life was 1.41 h. For the same compound, in data set [2], the bioavailability amounted to 70%. In data set [2] (po, 10 mg/kg), the AUC came out at 1500 ng·h/mL, the peak level (Cmax) was 858 ng/mL and the half-life is 1.73 h.

Turning to `Cc1cc(C(N)=O)c(F)cc1Nc1ncc2c(n1)n(C1CC3CCC(C1)O3)c(=O)n2C` (stereo not drawn) [Compound 85, 4-((9-(8-oxabicyclo[3.2.1]octan-3-yl)-7-methyl-8-oxo-8,9-dihydro-7H-purin-2-yl)amino)-2-fluoro-5-methylbenzamide], the IC50 on DNA-PK kinase was determined as 1.1 nM. The half-life at 0.5 µM in data set [1] is above 120 min.

Take `Cc1cc(C#N)ccc1Nc1ncc2c(n1)n([C@H]1CC[C@H](C#N)CC1)c(=O)n2C` [Compound 80, 4-((9-(trans-4-cyanocyclohexyl)-7-methyl-8-oxo-8,9-dihydro-7H-purin-2-yl)amino)-3-methylbenzonitrile]: the IC50 at DNA-PK kinase stood at 11.1 nM. In addition, the half-life at 0.5 µM in data set [1] is above 120 min. Further, in data set [2] (iv, 1 mg/kg), the AUC is 6300 ng·h/mL and the half-life is 3.12 h. Also, in data set [2], the bioavailability was found to be 33.6%. In data set [2] (po, 10 mg/kg), the AUC came to 21200 ng·h/mL, the Cmax stood at 3570 ng/mL and the half-life was 2.16 h.

As for `Cc1cc(C(N)=O)c(F)cc1Nc1ncc2c(n1)n([C@H]1C[C@H](O)C1)c(=O)n2C` [Compound 93, 2-Fluoro-4-((9-(trans-3-hydroxycyclobutyl)-7-methyl-8-oxo-8,9-dihydro-7H-purin-2-yl)amino)-5-methylbenzamide], the IC50 at DNA-PK kinase was determined as 0.75 nM. Further, the half-life at 0.5 µM in data set [1] was above 120 min.

Regarding `CCNC(=O)c1ccc(Nc2ncc3c(n2)n(C2CCOCC2)c(=O)n3C)c(C)c1` [Compound 29, N-ethyl-3-methyl-4-((7-methyl-8-oxo-9-(tetrahydro-2H-pyran-4-yl)-8,9-dihydro-7H-purin-2-yl)amino)benzamide], the IC50 on DNA-PK kinase stood at 3.9 nM. In addition, the half-life at 0.5 µM in data set [1] was above 120 min. Moreover, in data set [2] (iv, 1 mg/kg), the AUC was 609 ng·h/mL and the half-life is 0.46 h. In data set [2], the bioavailability was found to be 42.1%. For the same compound, in data set [2] (po, 10 mg/kg), the AUC stood at 2560 ng·h/mL, the Cmax was 1820 ng/mL and the half-life is 1.22 h.

With `Cc1cc(C(N)=O)c(C(F)(F)F)cc1Nc1ncc2c(n1)n(C1CCOCC1)c(=O)n2C` [Compound 48, 5-Methyl-4-((7-methyl-8-oxo-9-(tetrahydro-2H-pyran-4-yl)-8,9-dihydro-7H-purin-2-yl)amino)-2-(trifluoromethyl)benzamide], the IC50 on DNA-PK kinase came to 1.96 nM. The half-life at 0.5 µM in data set [1] was above 120 min.

Take `[2H]C([2H])([2H])c1cc(C(N)=O)c(F)cc1Nc1ncc2c(n1)n(C1CCOCC1)c(=O)n2C` [Compound 44, 2-Fluoro-5-(methyl-d3)-4-((7-methyl-8-oxo-9-(tetrahydro-2H-pyran-4-yl)-8,9-dihydro-7H-purin-2-yl)amino)benzamide]: the IC50 on DNA-PK kinase is 1.1 nM. In addition, the half-life at 0.5 µM in data set [1] is above 120 min.

As for `Cn1c(=O)n(C2CCOCC2)c2nc(Nc3ccc(C(N)=O)cc3Cl)ncc21` [Compound 26, 3-Chloro-4-((7-methyl-8-oxo-9-(tetrahydro-2H-pyran-4-yl)-8,9-dihydro-7H-purin-2-yl)amino)benzamide], the IC50 at DNA-PK kinase came to 7.6 nM. For the same compound, in data set [1], the half-life at 0.5 µM is above 120 min. Further, in data set [2] (iv, 1 mg/kg), the AUC is 639 ng·h/mL and the half-life is 1.52 h. In addition, the bioavailability in data set [2] was 110%. Moreover, in data set [2] (po, 10 mg/kg), the AUC came to 7100 ng·h/mL, the Cmax amounted to 2730 ng/mL and the half-life was 2.99 h.

With `[2H]C([2H])([2H])NC(=O)c1cc(C)c(Nc2ncc3c(n2)n(C2CCOCC2)c(=O)n3C)cn1` [Compound 39, 4-Methyl-N-(methyl-d3)-5-((7-methyl-8-oxo-9-(tetrahydro-2H-pyran-4-yl)-8,9-dihydro-7H-purin-2-yl)amino)picolinamide], the IC50 at DNA-PK kinase came to 5.7 nM. Also, in data set [1], the half-life at 0.5 µM is above 120 min.

On to `Cc1cc(C(N)=O)c(F)cc1Nc1ncc2c(n1)n(C1CCCOC1)c(=O)n2C` (stereo not drawn) [Compound 69, 2-fluoro-5-methyl-4-((7-methyl-8-oxo-9-(tetrahydro-2H-pyran-3-yl)-8,9-dihydro-7H-purin-2-yl)amino)benzamide], for which the IC50 on DNA-PK kinase came out at 1.25 nM. Moreover, in data set [1], the half-life at 0.5 µM is above 120 min.

As to `Cc1cc(C(N)=O)c(F)cc1Nc1ncc2c(n1)n(C1CCNCC1)c(=O)n2C` [Compound 81, 2-Fluoro-5-methyl-4-((7-methyl-8-oxo-9-(piperidin-4-yl)-8,9-dihydro-7H-purin-2-yl)amino)benzamide], the IC50 on DNA-PK kinase was 47.1 nM. In addition, the half-life at 0.5 µM in data set [1] is above 120 min.

The values above are taken from patent US20230165867A1 (CHENGDU BAIYU PHARMACEUTICAL CO., LTD., priority 2020, published 2023).
